Experimental data reported in patent US20200215099A1, “NON-ANTICOAGULANT SULFATED OR SULFONATED POLYSACCHARIDES” (Baxalta Incorporated, priority 2012, published 2020).

How the values were obtained:
[1] = Pharmacokinetics after oral administration; type: in vivo, CD rats
Method: The preparations were either unfractionated (average MW of 24 kD) or fractionated by a filter method (average MW of 14 kD). The substances were prepared in a physiological saline solution without enhancer or with 0.8 wt % DOC or with 3 wt % chitosan+0.5 mg/mL bromelain. Each group dosed with NASP consisted of six rats. For each formulation, three additional rats served as vehicle controls. Blood samples were collected in the presence of citrate (ratio 1:9) before dosing and 15, 30 min, 1, 5, and 7 h after the dosing. Platelet-poor plasma was prepared by two centrifugation steps at 3000 rpm for 10 min.
The NASPs in the plasma samples were detected by a fluorescence assay that uses the dye HeparinRed that specifically binds to sulfated polysaccharides. Experiments were performed in a black half-area 96-well microtiter plate (Costar). For the S-6-CI standard curves (0.185 to 2.5 μg/mL), 10 μL of rat plasma was spiked with 5 μL of S-6-CI and mixed with 40 μL of human pooled plasma to minimize the matrix effect of individual animals. Then 5 μl HeparinRed dye was added and incubated in the dark at RT for 5 min. Plasma samples of the dosed animals were treated accordingly, however, the 5 μL S-6-CI were replaced by buffer. Fluorescent signals were detected with a Tecan Safire2™ microplate fluorescence reader (Ex/Em 580/620 nm) and the S-6-CI quantified based on the S-6-CI standard curve. […]

FVIII-inhibited plasma = assay: Thrombin generation assay (CAT) in FVIII-inhibited plasma; type: biochemical, human
Method: The procoagulant activity of the sulfated polysaccharides was assessed by the Thrombin Generation Assay (TGA). The influence of each sulfated polysaccharide on thrombin generation was measured in duplicate via CAT in a Fluoroskan Ascent® reader (Thermo Labsystems, Helsinki, Finland; filters 390 nm excitation and 460 nm emission) following the slow cleavage of the fluorogenic substrate Z-Gly-GIy-Arg-AMC (Hemker H C. Pathophysiol Haemost Thromb (2003) 33(4):15). To each well of a 96 well microplate (Immulon 2HB, clear U-bottom; Thermo Electron) 80 μL of pre-warmed (37° C.) goat anti FVIII antibody treated human normal plasma pool was added. For triggering thrombin generation by tissue factor, 104 of PPP reagent containing a certain amount of recombinant human tissue factor (rTF) and phospholipid vesicles composed of phosphatidylserine, phosphatidylcholine and phosphatidylethanolamine (final concentration of 4 μM) (Thrombinoscope BV, Maastricht, The Netherlands) was added. For studying the procoagulant activity of sulfated polymers a final TF concentration of 1 pM was used to provide FVIII and TFPI sensitivity of the test system. Just prior to putting the plate into the pre-warmed (37° C.) reader, 10 µL of test or reference sample or calibrator compound was added. Thrombin generation was started by dispensing 204 of FluCa reagent (Thrombinoscope BV, Maastricht, The Netherlands) containing fluorogenic substrate and Hepes buffered CaCl2 (100 mM) into each well and fluorescence intensity was recorded at 37° C.
The parameters of the resulting thrombin generation curves were calculated using the Thrombinoscope™ software (Thrombinoscope BV, Maastricht, The Netherlands) and thrombin calibrator to correct for inner filter and substrate consumption effects (Hemker H C, Pathophysiol Haemost Thromb (2003) 33(4):15). With the thrombin calibrator as a reference, the molar concentration of thrombin in the test wells was calculated by the software. The thrombin amounts at the peak and peak times of each thrombin generation curve (peak thrombin, nM) were plotted against sulfated polysaccharide concentrations resulting in the procoagulant profile of these compounds. The thrombin generation assay results are illustrated in the figures appended hereto. From these plots half maximal effective concentrations (EC50) values are determined using a sigmoidal curve fit. The EC50 represents the concentration at which the half maximal thrombin peak is reached.

full-length TFPI = target: T1, full-length TFPI (Homo sapiens, UniProt P10646); assay: Dilute prothrombin time assay with added TFPI (TFPI-dPT); type: biochemical; details: normal human plasma
T1 construct: 0.5 μg/mL full-length TFPI (aa 1-276, constitutively produced by SKHep1); made in house; host or cells: SKHep1
T1 sequence (P10646 29-304): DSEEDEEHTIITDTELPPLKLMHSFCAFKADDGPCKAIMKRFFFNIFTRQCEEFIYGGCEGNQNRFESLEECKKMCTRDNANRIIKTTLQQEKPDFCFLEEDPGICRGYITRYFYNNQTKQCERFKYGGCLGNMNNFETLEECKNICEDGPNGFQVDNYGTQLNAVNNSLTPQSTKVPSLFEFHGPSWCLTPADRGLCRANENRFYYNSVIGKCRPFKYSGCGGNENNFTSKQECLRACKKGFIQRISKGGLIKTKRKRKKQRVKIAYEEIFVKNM
Method: A dilute prothrombin time assay with added TFPI (TFPI-dPT) was used to evaluate the TFPI-inhibiting effect of the different NASPs. Pooled normal human plasma (George King Biomedical, Overland Park, Kans.) was pre-incubated with 0.5 μg/mL full-length TFPI (aa 1-276, constitutively produced by SKHep1) and the respective NASP (0-5 μg/mL) for 15 min at RT. TF reagent TriniClot PT Excel S (Trinity Biotech, Wicklow, Ireland), diluted in Hepes-buffered saline 1:200 with 0.5% BSA was added to the plasma samples on an ACL Pro Elite hemostasis analyzer (Instrumentation Laboratory, Bedford, Mass.). Clotting was initiated with 25 mM CaCl2). The volume ratio of plasma:TF:CaCl2 was 1:1:1.
For data analysis, TFPI-dPT is plotted against the log concentration. Half maximal effective concentrations (EC50) values are determined using a sigmoidal curve fit.

normal human plasma = assay: Activated partial thromboplastin time assay (aPTT); type: biochemical; details: 50% increase clotting time / CAT EC50
Method: The aPTT assay was performed to study anticoagulant activities of NASP. In brief, 50 μL of thawed normal human plasma pool (George King Biomedical, Overland Park, Kans.) was mixed with 5 μL of NASP sample (0-60 μg/mL final plasma concentration). NASPs were diluted in imidazole buffer (3.4 g/L imidazole; 5.85 g/L NaCl, pH 7.4) containing 1% albumin (Baxter, Austria). After addition of 50 μL aPTT reagent (STA APTT, Roche) the samples were incubated for 4 min at 37° C. Clotting was initiated by 50 μL of 25 mM CaCl2 solution (Baxter, Austria) and recorded for up to 5 min. All pipetting steps and clotting time measurements were carried out with an ACL Pro Elite (Instrumentation Laboratory, Bedford, Mass.) instrument. Samples were run in duplicate.
For data analysis, clotting time is plotted against the NASP concentration. Concentrations where the clotting time is 50% increased over the normal plasma control are determined using a linear curve fit.

sulfated 6-carboxy-icodextrin
time of highest plasma level after dosing ([1]; oral 50 mg/kg): 60 min | plasma levels at all time points ([1]; oral 50 mg/kg with chitosan+bromelain): < 300 ng/mL | procoagulant activity (in words) (FVIII-inhibited plasma): good procoagulant activity in CAT assays at very low concentrations | procoagulant at (concentration) (FVIII-inhibited plasma; 37° C., 1 pM hTF, 4 μM PL): about 0.01 μg/mL | EC50 (FVIII-inhibited plasma; half maximal thrombin peak, 1 pM hTF, 4 μM PL): 0.07 µg/mL | reversal of the effect of rec. FL-TFPI (in words) (full-length TFPI): reverses the anticoagulant effect of exogenous full-length TFPI | Ratio aPTT/CAT (normal human plasma): very good
